How the values were obtained:
mTOR kinase = mTOR kinase (Homo sapiens (Human), UniProt P42345); experiment: mTOR kinase activity assay (TR-FRET, GFP-4EBP1 substrate); format: biochemical; settings: read-out: Enzyme (mTOR) IC50
Experimental: 1. mTOR Kinase Activity Assay: The inhibition of the mTOR protein kinase activity by the compounds was determined by the enzymatic activity assay in vitro. The detection kit supplied by Invitrogen was used to detect the inhibition of the activity of the mTOR […]. The principle of the assay was as follows: mTOR kinase, fluorescein-labeled substrate and ATP were mixed, and after the reaction, EDTA and terbium-labeled first antibody were added. During the chemical reaction process of the mTOR kinase, the antibody recognized the phosphorylated and fluorescein-labeled substrate, and then the “time-resolved fluorescence resonance energy transfer” (TR-FRET) effect was enhanced. TR-FRET effect was calculated as the ratio of signals from the acceptor fluorescein to signals from the donor terbium. The amount of the antibody bound to the tracer was directly proportional to the amount of the phosphorylated substrate after the reaction. In this way, the kinase activity can be detected. In this assay, the substrate of the mTOR kinase was green fluorescent protein-coupled 4E binding protein 1 (GFP-4EBP1).
1.1 Materials and Instruments:
4-Hydroxyethylpiperazine ethanesulfonic acid (HEPES, Sigma, Cat# SH3375), ethylene glycol-bis-(2-aminoethylether)-tetraacetic acid (EGTA, Sigma, Cat# E3889), manganese chloride (MnCl2, Sigma, Cat# M1787), Tween-20 (Tween-20, Amresco), 1,4-dithiothreitol (DTT, Merck, CB233155),

PC-3 = experiment: CTG cell survival assay, PC-3; format: cell-based; settings: Homo sapiens, PC-3 cells
From the text: (§1) 2. CTG Cell Survival Assay:
(§2) ATP is necessarily produced during the metabolic activities of viable cells, and there is a linear relationship between the content of ATP and the number of viable cells. Cell viability assay by CTG chemiluminescence is a general method for detecting the number of viable cells in the culture cells based on this principle. The addition of the CellTiter-Glo (CTG) reagent may induce cell lysis and produce chemiluminescent signals directly proportional to the amount of ATP in the well-plate, and thereby the cell proliferation activity in the well-plate can be measured by the reading values from the chemiluminescence.
(§3) 2.1 Experimental Materials and Instruments:
(§4) 2.4 Experimental Procedure: • 1.4.1 Cell Thawing: Cryogenic vials were removed from the liquid nitrogen container, directly immersed in a water bath at 37° C., and shaked from time to time to thaw. The cryogenic vials were removed from the water bath at 37° C., and transferred to the biosafe cabinet. Their lids were opened, and the cell suspensions were aspirated with pipettes, added to centrifuge tubes, and then added with more than 10 volumes of culture solution, mixed well; centrifuged for 5 min at 1000 rpm; the supernatant was discarded, and medium containing cell growth was added to resuspend cells. All cell suspensions were seeded to the T25 culture flasks and static cultured in an incubator at 37° C.; the culture solution were changed once on the next day, and continued to be cultured. • 2.4.2 Cell Passaging: After cells were grown to logarithmic phase and were 80%-90% confluent, cells were removed and placed in the biosafe cabinet, the old culture solution was discarded, and the cells were wetted and washed with PBS once or twice. An appropriate amount of 0.25% Trypsin-EDTA solution was added to the culture flasks. The flasks were placed in the carbon dioxide incubator at 37° C. for 2-5 min. An appropriate amount of cell growth medium containing 10% PBS was added to terminate the digestion, lightly swished, and transferred to the centrifuge tubes and centrifuged for 5 min at 1000 rpm. The cells were prepare (into cell suspensions for passaging and experimental use. • 2.4.3 Cell Plating • 2.4.3.1 A cell suspension was prepared: After cells were grown to logarithmic phase and were 80%-90% confluent, the cells were removed to the biosafe cabinet, and the old culture solution was discarded, then the cells were wetted and washed with PBS once or twice. An appropriate amount of 0.25% Trypsin-EDTA solution was added to the culture flask. The flask was placed in a carbon dioxide incubator at 37° C. for 2-5 min. An appropriate amount of the cell growth medium containing 10% PBS was added to terminate digestion, and was lightly swished. The solution was transferred to a centrifuge tube, centrifuged for 5 min at 1000 rpm, and counted. […] Secondly, 20 uM of the compound to be tested was diluted with the cell growth medium containing 0.2% DMSO in 3-fold dilution to obtain 9 concentrations, and there were 10 concentration gradients in total. • 2.4.4.3 Addition of the compounds to be tested: the prepared gradient dilution solutions of compounds to be tested were taken and added to the cell culture plate at 100 ul/well; at this point, the maximum concentration of compounds to be tested was 10 uM, and the concentration of DMSO was 0.1%.

SK-BR3/BT474 = experiment: CTG cell survival assay, SK-BR3/BT474; format: cell-based; settings: SK-BR3/BT474 cells
From the text: as §1, §2, §3, §4

MV-4-11 = experiment: CTG cell survival assay, MV-4-11; format: cell-based; settings: Homo sapiens, MV4-11, MV-4-11 cells
From the text: as §1, §2, §3
2.1.1 Experimental Materials: compounds to be tested, cell basal culture medium, RPMI Medium 1640 (Invitrogen, Cat#11875-093), fetal calf serum (FBS): Hyclone FETAL BOVINE SERUM DEFINED (Invitrogen, Cat#SH30070.03), antibiotics: Penicilin Streptomycin (Invitrogen, Cat#15140-122), phosphate buffer (Corning Cellgro, Cat#R21-040-CV), cell digestive solution: 0.25% Trypsin-EDTA (Invitrogen, Cat#25200-056), CTG detection kit: Promega, Cat#G7571, flat-bottom 96-well black bottom plate: NUNC, Cat#165305, T25 culture flask: NUNC, Cat#156367, T75 culture flask: NUNC, Cat#156439
2.2 Experimental Instruments: Carbon Dioxide Incubator, SANYO-MCO-20AIC, Biosafe Cabinet: BSC-1360-LIIA2, Table-Top High-Speed Refrigerated Centrifuge: SorvallST 16R, Microplate Rapid Oscillator: QB-9001, M3 Reader: SpectraMax M3, Microscope: OLYMPUS-CKX41/CKX31.
2.3 Preparation of Solutions and Reagents: Formulation of cell growth medium: RPMI Medium 1640+10% FBS+antibiotics, others: trypsin digestive solution, phosphate buffer (PBS), DMSO, CTG detection kit.
2.4 Experimental Procedure: • 1.4.1 Cell Thawing: Cryogenic vials were removed from the liquid nitrogen container, directly immersed in a water bath at 37° C., and shaked from time to time to thaw. The cryogenic vials were removed from the water bath at 37° C., and transferred to the biosafe cabinet. Their lids were opened, and the cell suspensions were aspirated with pipettes, added to centrifuge tubes, and then added with more than 10 volumes of culture solution, mixed well; centrifuged for 5 min at 1000 rpm; the supernatant was discarded, and medium containing cell growth was added to resuspend cells. All cell suspensions were seeded to the T25 culture flasks and static cultured in an incubator at 37° C.; the culture solution were changed once on the next day, and continued to be cultured. • 2.4.2 Cell Passaging: After cells were grown to logarithmic phase and were 80%-90% confluent, cells were removed and placed in the biosafe cabinet, the old culture solution was discarded, and the cells were wetted and washed with PBS once or twice. An appropriate amount of 0.25% Trypsin-EDTA solution was added to the culture flasks. The flasks were placed in the carbon dioxide incubator at 37° C. for 2-5 min. An appropriate amount of cell growth medium containing 10% PBS was added to terminate the digestion, lightly swished, and transferred to the centrifuge tubes and centrifuged for 5 min at 1000 rpm. The cells were prepare (into cell suspensions for passaging and experimental use. • 2.4.3 Cell Plating • 2.4.3.1 A cell suspension was prepared: After cells were grown to logarithmic phase and were 80%-90% confluent, the cells were removed to the biosafe cabinet, and the old culture solution was discarded, then the cells were wetted and washed with PBS once or twice. An appropriate amount of 0.25% Trypsin-EDTA solution was added to the culture flask. The flask was placed in a carbon dioxide incubator at 37° C. for 2-5 min. An appropriate amount of the cell growth medium containing 10% PBS was added to terminate digestion, and was lightly swished. The solution was transferred to a centrifuge tube, centrifuged for 5 min at 1000 rpm, and counted. […]

Sequence of mTOR kinase (P42345 1360-2549): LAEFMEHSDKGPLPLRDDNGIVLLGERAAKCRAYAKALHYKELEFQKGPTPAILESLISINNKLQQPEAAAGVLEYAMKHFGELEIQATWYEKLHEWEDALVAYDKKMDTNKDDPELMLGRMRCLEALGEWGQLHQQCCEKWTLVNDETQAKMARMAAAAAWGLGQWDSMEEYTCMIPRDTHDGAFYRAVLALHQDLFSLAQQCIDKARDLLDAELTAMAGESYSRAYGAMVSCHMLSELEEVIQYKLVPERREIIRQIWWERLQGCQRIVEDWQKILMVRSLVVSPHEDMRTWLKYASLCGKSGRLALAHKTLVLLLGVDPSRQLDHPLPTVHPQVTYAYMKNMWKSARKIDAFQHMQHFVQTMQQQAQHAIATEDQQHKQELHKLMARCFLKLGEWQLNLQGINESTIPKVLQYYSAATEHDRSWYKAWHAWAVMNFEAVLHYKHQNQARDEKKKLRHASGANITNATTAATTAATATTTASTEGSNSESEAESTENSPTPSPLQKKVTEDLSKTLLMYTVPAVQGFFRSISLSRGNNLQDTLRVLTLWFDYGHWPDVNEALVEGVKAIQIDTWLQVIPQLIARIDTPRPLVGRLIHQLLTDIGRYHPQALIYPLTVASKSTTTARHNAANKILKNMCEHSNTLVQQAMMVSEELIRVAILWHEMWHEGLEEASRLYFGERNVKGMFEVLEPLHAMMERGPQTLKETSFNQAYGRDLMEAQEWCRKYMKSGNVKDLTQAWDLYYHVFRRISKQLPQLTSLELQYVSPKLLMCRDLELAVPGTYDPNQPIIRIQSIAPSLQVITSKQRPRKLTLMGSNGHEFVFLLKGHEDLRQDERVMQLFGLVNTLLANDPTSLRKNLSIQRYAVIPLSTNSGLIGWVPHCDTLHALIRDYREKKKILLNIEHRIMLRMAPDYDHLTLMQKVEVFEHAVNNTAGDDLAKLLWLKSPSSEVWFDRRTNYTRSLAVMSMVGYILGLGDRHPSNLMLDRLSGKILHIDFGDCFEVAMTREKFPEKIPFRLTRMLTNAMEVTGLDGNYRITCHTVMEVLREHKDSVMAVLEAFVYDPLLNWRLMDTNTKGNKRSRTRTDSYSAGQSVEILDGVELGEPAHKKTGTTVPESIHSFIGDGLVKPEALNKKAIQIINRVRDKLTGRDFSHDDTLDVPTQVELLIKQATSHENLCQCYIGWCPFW

SMILES | IC50 (mTOR kinase) [nM] | EC50 (PC-3) [nM] | EC50 (SK-BR3/BT474) [nM] | EC50 (MV-4-11) [nM]
Cn1cc(-c2ccc(-c3ccc4ncc5c(c4c3)n(C3CCN(C(=O)CO)C3)c(=O)n5C)cn2)cn1 (stereo not shown) [Example 7, 1-(1-(2-hydroxyacetyl)pyrrolidin-3-yl)-3-methyl-8-(6-(1-methyl-1H-pyrazol-4-yl)pyridin-3-yl)-1H-imidazo[4,5-c]quinolin-2(3H)-one] | 100 to 1000 | < 1000 | < 1000 | 
CC(=O)N1CCC(n2c(=O)n(C)c3cnc4ccc(-c5ccc(-c6cnn(C)c6)nc5)cc4c32)C1 (stereo not shown) [Example 11, 1-(1-acetylpyrrolidin-3-yl)-3-methyl-8-(6-(1-methyl-1H-pyrazol-4-yl)pyridin-3-yl)-1H-imidazo[4,5-c]quinolin-2(3H)-one] | 100 to 1000 | < 1000 | < 1000 | 
Cn1cc(-c2ccc(-c3ccc4ncc5c(c4c3)n(C3CCN(S(=O)(=O)c4ccc(Cl)cc4)C3)c(=O)n5C)cn2)cn1 (stereo not shown) [Example 13, 1-(1-((4-chlorphenyl)sulfonyl)pyrrolidin-3-yl)-3-methyl-8-(6-(1-methyl-1H-pyrazol-4-yl)pyridin-3-yl)-1H-imidazo[4,5-c]quinolin-2(3H)-one] | 100 to 1000 | < 1000 | < 500 | 
Cc1ccc(S(=O)(=O)N2CCC(n3c(=O)n(C)c4cnc5ccc(-c6ccc(-c7cnn(C)c7)nc6)cc5c43)C2)cc1 (stereo not shown) [Example 14, 3-methyl-8-(6-(1-methyl-1H-pyrazol-4-yl)pyridin-3-yl)-1-(1-p-toluenesulfonylpyrrolidin-3-yl)-1H-imidazo[4,5-c]quinolin-2(3H)-one] | 100 to 1000 | < 1000 | < 200 | 
Cn1cc(-c2ccc(-c3ccc4ncc5c(c4c3)n(C3CCN(S(N)(=O)=O)C3)c(=O)n5C)cn2)cn1 (stereo not shown) [Example 15, 3-(3-methyl-8-(6-(1-methyl-1H-pyrazol-4-yl)pyridin-3-yl)-2-oxo-2,3-dihydro-1H-imidazo[4,5-c]quinolin-1-yl)pyrrolidine-1-sulfamide] | 100 to 1000 | < 500 | < 1000 | 
Cn1c(=O)n([C@H]2CC[C@@H](O)CC2)c2c3cc(-c4ccc(N)nc4)ccc3ncc21 [Example 26, 8-(6-aminopyridin-3-yl)1-((1s,4s)-4-hydroxycyclohexyl)-3-methyl-1H-imidazo[4,5-c]quinolin-2(3H)-one] | < 10 |  | < 200 | < 50
CCS(=O)(=O)N1CC[C@H](n2c(=O)n(C)c3cnc4ccc(-c5ccc(-c6cnn(C)c6)nc5)cc4c32)C1 [Example 29, (S)-1-(1-(ethylsulfonyl)pyrrolidin-3-yl)-3-methyl-8-(6-(1-methyl-1H-pyrazol-4-yl)pyridin-3-yl)-1H-imidazo[4,5-c]quinolin-2(3H)-one] | < 10 |  | < 100 | < 100
Cn1c(=O)n([C@H]2CCN(S(C)(=O)=O)C2)c2c3cc(-c4ccc(-c5ccccc5)nc4)ccc3ncc21 [Example 30, (S)-3-methyl-1-(1-(methanesulfonyl)pyrrolidin-3-yl)-8-(6-phenylpyridin-3-yl)-1H-imidazo[4,5-c]quinolin-2(3H)-one] | < 10 |  | < 100 | < 100
[2H]C([2H])([2H])n1c(=O)n(C2CCCN(S(C)(=O)=O)C2)c2c3cc(-c4ccc(-c5cnn(C)c5)nc4)ccc3ncc21 (stereo not shown) [Example 36, 3-deuteromethyl-8-(6-(1-methyl-1H-pyrazol-4-yl)pyridin-3-yl)-1-(1-(methanesulfonyl)piperidin-3-yl)-1H-imidazo[4,5-c]quinolin-2(3H)-one] | < 10 |  | < 500 | < 200
Cn1cc(-c2ccc(-c3ccc4ncc5c(c4n3)n(C3CCCN(S(C)(=O)=O)C3)c(=O)n5C)cn2)cn1 (stereo not shown) [Example 37, 3-methyl-8-(6-(1-methyl-1H-pyrazol-4-yl)pyridin-3-yl)-1-(1-(methanesulfonyl)piperidin-3-yl)-1H-imidazo[4,5-c][1,5]naphthyridin-2(3H)-one] | < 10 |  | < 50 | < 50
Cn1cc(-c2ccc(-c3ccc4ncc5c(c4n3)n([C@H]3CCN(S(C)(=O)=O)C3)c(=O)n5C)cn2)cn1 [Example 38, (S)-3-methyl-8-(6-(1-methyl-1H-pyrazol-4-yl)pyridin-3-yl)-1-(1-(methanesulfonyl)pyrrolidin-3-yl)-1H-imidazol-[4,5-c][1,5]naphthyridin-2(3H)-one] | < 10 | 21 |  | 
Cn1c(=O)n([C@H]2CCN(S(C)(=O)=O)C2)c2c3nc(-c4ccc(-c5ccccc5)nc4)ccc3ncc21 [Example 39, (S)-3-methyl-1-(1-(methanesulfonyl)pyrrolidin-3-yl)-8-(6-phenylpyridin-3-yl)-1H-imidazo[4,5-c][1,5]naphthyridin-2(3H)-one] | < 10 | 37 |  | 
